Measurements reported in patent US20190375708A1 (VenatoRx Pharmaceuticals, Inc., priority 2018, published 2019).

Experiments:
[1] = tested on: HBV replication in HepAD38 cells; assay: Anti-HBV replication assay in HepAD38 cells (QPCR of extracellular HBV DNA); type: cell-based, HBV (genotype D, serotype ayw); settings: Hepatitis B virus, 168 h, 7 days incubation, extracellular HBV DNA by QPCR, read-out: Anti-HBV EC50
Summary of the method: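 Read-out is QPCR of HBV DNA released into culture supernatant, converted to percent of vehicle control and fitted to give EC50. Cells were HepAD38 induced by tetracycline removal and dosed […] for 7 days.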

[2] = In vitro cytotoxicity assay (MTT cell viability) in HepG2 cells; type: cell-based, human; settings: human
Summary of the method: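 CC50 values reflect loss of HepG2 viability after a 7-day exposure at 37 °C, 5% CO2. After 3-4 h with MTT, solubilized formazan was quantified at 492 nm relative to vehicle wells.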

Structure (SMILES)	EC50 [1] [nM]	CC50 at 7 days [2] [nM]
O=C(N[C@H]1C[C@H](O)C1)C(=O)c1c(Cl)c(C(=O)Nc2ccc(F)c(F)c2)c2n1CCC2 [Example 551, 6-chloro-N-(3,4-difluorophenyl)-5-(2-(((1r,3r)-3-hydroxycyclobutyl)amino)-2-oxoacetyl)-2,3-dihydro-1H-pyrrolizine-7-carboxamide]	50 to 499	> 30000
Cc1cc(NC(=O)c2cc(C(=O)C(=O)N[C@H](C)C(C)(F)F)n3c2CCCC3)ccc1F [Example 428, (R)-3-(2-((3,3-difluorobutan-2-yl)amino)-2-oxoacetyl)-N-(4-fluoro-3-methylphenyl)-5,6,7,8-tetrahydroindolizine--1 carboxamide]	50 to 499	> 30000
Cc1noc([C@H](C)NC(=O)C(=O)c2c(Cl)c(C(=O)Nc3ccnc(F)c3)c3n2CCCC3)n1 [Example 509, (S)-2-chloro-N-(2-fluororpyridin-4-yl)-3-(2-((1-(3-methyl-1,2,4-oxadiazol-55-yl)ethyl)amino)-2-oxoacetyl)-5,6,7,8-tetrahydroindoliznie-1-carboxamide]	500 to 1000	> 30000
Cc1cc(NC(=O)c2c(C)c(C(=O)C(=O)N[C@H](CO)[C@@H](C)O)n(C)c2C)ccc1F [Example 143, 5-(2-(((2R,3R)-1,3-dihydroxybutan-2-yl)amino)-2-oxoacetyl)-N-(4-fluoro-3-methylphenyl)-1,2,4-trimethyl-1H-pyrrole-3-carboxamide]	< 50	> 30000
Cc1c(C(=O)Nc2ccc(F)c(Cl)c2)c(C)n(C)c1C(=O)C(=O)Nc1cccnc1 [Example 311, N-(3-chloro-4-fluorophenyl)-1,2,4-trimethyl-5-(22-oxo-2-(pyridin-3-ylamino)acetyl)-1H-pyrrole-3-carboxamide]	< 50	> 30000
Cc1cc(NC(=O)c2c(C)c(C(=O)C(=O)Nc3cccc(B(O)O)c3)n(C)c2C)ccc1F [Example 254, (3-(2-(4-((4-fluoro-3-methylphenyl)carbamoyl)-1,3,5-trimethyl-1H-pyrrol-2-yl)-2-oxoacetamido)phenyl)boronic acid]	< 50	5000 to 30000
Cc1cc(NC(=O)c2c(C)c(C(=O)C(=O)N[C@@H](C(N)=O)[C@H](C)O)n(C)c2C)ccc1F [Example 44, 5-(2-(((2R,3S)-1-amino-3-hydroxy-1-oxobutan-2-yl)amino)-2-oxoacetyl)-N-(4-fluoro-3-methylphenyl)-1,2,4-trimethyl-1H-pyrrole-3-carboxamide]	< 50	> 30000
Cc1noc([C@H](C)NC(=O)C(=O)c2cc(C(=O)Nc3ccc(F)c(C)c3)c3n2CCCC3)n1 [Example 430, (S)-N-(4-fluoro-3-methylphenyl)-3-(2-((1-(3-methyl-1,2,4-oxadiazol-5-yl)ethyl)amino)-2-oxoacetyl)-5,6,7,8-tetrahydroindolizine-1-carboxamide]	50 to 499	> 30000
Cc1cc(NC(=O)c2c(C)c(C(=O)C(=O)NC3(C)CCOCC3)n(C)c2C)ccc1F [Example 277, N-(4-fluoro-3-methylphenyl)-1,2,4-trimethyl-5-(2-((4-methyltetrahydro-2H-pyran-4-yl)amino)-2-oxoacetyl)-1H-pyrrole-3-carboxamide]	< 50	> 30000
Cc1cc(NC(=O)c2c(C)c(C(=O)C(=O)NCC(C)(C)O)n(CCF)c2C)ccc1F [Example 178, N-(4-fluoro-3-methylphenyl)-1-(2-fluoroethyl)-5-(2-((2-hydroxy-2-methylpropyl)amino)-2-oxoacetyl)-2,4-dimethyl-1H-pyrrole-3-carboxamide]	50 to 499	5000 to 30000
Cc1c(C(=O)Nc2ccc(F)c(F)c2)c2n(c1C(=O)C(=O)N[C@H]1COC[C@@H]1O)CCCC2 [Example 457, N-(3,4-difluorophenyl)-3-(2-(((3S,4R)-4-hydroxytetrahydrofuran-3-yl)amino)-2-oxoacetyl)-2-methyl-5,6,7,8-tettrahydroindolizine-1-carboxamide]	50 to 499	> 30000
Cc1cc(NC(=O)c2c(Cl)c(C(=O)C(=O)NCc3cnc(N)s3)n3c2CCC3)ccc1F [Example 552, 5-(2-(((2-aminothiazol-5-yl)methyl)amino)-2-oxoacetyl)-6-chloro-N-(4-fluoro-3-methylphenyl)-2,3-dihydro-1H-pyrrolizine-7-carboxamide]	< 50	5000 to 30000
Cc1noc([C@@H](C)NC(=O)C(=O)c2cc(C(=O)Nc3ccc(F)c(C)c3)c3n2CCCC3)n1 [Example 431, (R)-N-(4-fluoro-3-methylphenyl)-3-(2-((1-(3-methyl-1,2,4-oxadiazol-5-yl)ethyl)amino)-2-oxoacetyl)-5,6,7,8-tetrahydroindolizine-1-carboxamide]	50 to 499	> 30000
Cc1cc(NC(=O)c2c(C)c(C(=O)C(=O)NC3(CN4CCOCC4)CCCC3)n(C)c2C)ccc1F [Example 595, N-(4-fluoro-3-methylphenyl)-1,2,4-trimethyl-5-(2-((1-(morpholinomethyl)cyclopentyl)amino)-2-oxoacetyl)-1H-pyrrole-3-carboxamide]	< 50	> 30000
O=C(NC1(CO)CC(F)(F)C1)C(=O)c1c(Cl)c(C(=O)Nc2ccc(F)c(Cl)c2)c2n1CCC2 [Example 580, 6-chloro-N-(3-chloro-4-fluorophenyl)-5-(2-((3,3-difluoro-1-(hydroxymethyl)cyclobutyl)amino)-2-oxoacetyl)-2,3-dihydro-1H-pyrrolizine-7-carboxamide]	< 50	5000 to 30000
Cc1cc(NC(=O)c2c(C)c(C(=O)C(=O)N[C@H](CO)C(N)=O)n(C)c2C)ccc1F [Example 54, (R)-5-(2-((1-amino-3-hydroxy-1-oxopropan-2-yl)amino)-2-oxoacetyl)-N-(4-fluoro-3-methylphenyl)-1,2,4-trimethyl-1H-pyrrole-3-carboxamide]	50 to 499	> 30000
Cc1cc(NC(=O)c2c(C)c(C(=O)C(=O)NC(C)(C)CO)n(CCF)c2C)ccc1F [Example 116, N-(4-fluoro-3-methylphenyl)-1-(2-fluoroethyl)-5-(2-((1-hydroxy-2-methylpropan-2-yl)amino)-2-oxoacetyl)-2,4-dimethyl-1H-pyrrole-3-carboxamide]	< 50	> 30000
Cc1nc(C2(NC(=O)C(=O)c3c(C)c(C(=O)Nc4ccc(F)c(C)c4)c(C)n3C)CCCC2)no1 [Example 158, N-(4-fluoro-3-methylphenyl)-1,2,4-trimethyl-5-(2-((1-(5-methyl-1,2,4-oxadiazol-3-yl)cyclopentyl)amino)-2-oxoacetyl)-1H-pyrrole--3 carboxamide]	< 50	> 30000
Cc1cc(NC(=O)c2c(C)c(C(=O)C(=O)NC3(CN4CCN(c5ccc(Cl)cc5)CC4)CC3)n(C)c2C)ccc1F [Example 661, 5-(2-((1-((4-(4-chlorophenyl)piperazin-1-yl)methyl)cyclopropyl)amino)-2-oxoacetyl)-N-(4-fluoro-3-methylphenyl)-1,2,4-trimethyl-1H-pyrrole-3-carboxamide]	< 50	5000 to 30000
Cc1cc(NC(=O)c2c(C)c(C(=O)C(=O)N[C@H]3CNC(=O)C3)n(C)c2C)ccc1F [Example 611, (R)-N-(4-fluoro-3-methylphenyl)-1,2,4-trimethyl-5-(2-oxo-2-((5-oxopyrrolidin-3-yl)amino)acetyl)-1H-pyrrole-3-carboxamide]	< 50	> 30000
Cc1c(C(=O)Nc2ccc(F)c(F)c2)c2n(c1C(=O)C(=O)NCc1cnc(N)s1)CCCC2 [Example 455, 3-(2-(((2-aminothiazol-5-yl)methyl)amino)-2-oxoacetyl)-N-(3,4-difluorophenyl)-2-methyl-5,6,7,8-tetrahydroindolizine-1-carboxamide]	< 50	5000 to 30000
Cc1cc(NC(=O)c2c(C)c(C(=O)C(=O)NCc3csc(N)n3)n(C)c2C)ccc1F [Example 111, 5-(2-(((2-aminothiazol-4-yl)methyl)amino)-2-oxoacetyl)-N-(4-fluoro-3-methylphenyl)-1,2,4-trimethyl-1H-pyrrole-3-carboxamide]	< 50	> 30000
Cc1cc(NC(=O)c2c(C)c(C(=O)C(=O)NC3(C)CCN(C(=O)c4cnn(C)c4)CC3)n(C)c2C)ccc1F [Example 693, N-(4-fluoro-3-methylphenyl)-1,2,4-trimethyl-5-(2-((4-methyl-1-(1-methyl-1H-pyrazole-4-carbonyl)piperidin-4-yl)amno)-2-oxoacetyl)-1H-pyrrole-3-carboxamide]	< 50	> 30000
Cc1cc(NC(=O)c2cc(C(=O)C(=O)NC(C)(C)C)n3c2CCC3)ccc1F [Example 536, 5-(2-(tert-butylamino)-2-oxoacetyl)-N-(4-fluoro-3-methylphenyl)-2,3-dihydro-1H-pyrrolizine-7-carboxamide]	< 50	> 30000
Cc1cc(NC(=O)c2c(C)c(C(=O)C(=O)NC3CCOCC3(C)C)n(C)c2C)ccc1F (centres unmarked) [Example 281]	< 50	5000 to 30000
Cc1cc(NC(=O)c2c(C)c(C(=O)C(=O)N[C@]3(C)C[C@@H](O)C3)n(C)c2C)ccc1F [Example 619]	< 50	> 30000
Cc1cc(NC(=O)c2cc(C(=O)C(=O)N[C@H](C(N)=O)[C@@H](C)O)n3c2CCCC3)ccc1F [Example 401]	> 1000	> 30000
Cc1cc(NC(=O)c2c(C)c(C(=O)C(=O)Nc3ccc(F)c(F)c3)n(C)c2C)ccc1F [Example 231, 5-(2-((3,4-difluorophenyl)amino)-2-oxoacetyl)-N-(4-fluoro-3-methylphenyl)-1,2,4-trimethyl-1H-pyrrole-3-carboxamide]	< 50	5000 to 30000
